This is an account of results in PubChem BioAssay AID330 (DTP/NCI, 2004).

“And” between values parts separate entries of the source, which are not always exact repeats. Equal values may be shown once. Toxic doses and inconclusive results are not listed.

In this assay the test system is P388 leukemia ip, CD2F1 mice, survival T/C. As to the kind of experiment: NCI In Vivo Anticancer Drug Screen. Data for tumor model P388 Leukemia (intraperitoneal) in CD2F1 (CDF1) mice. The settings on record: endpoint: median survival time, higher = longer survival. The method, boiled down:
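Mice carrying the transplanted tumor received test compound or vehicle. Survival was recorded in each group, and the value is the treated-group measurement divided by that of the vehicle-treated control group.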

[1] abbreviates: dose: 100.0 mg/kg/injection, schedule: Q04DX003 (ip), vehicle: Klucel (hydroxypropylcellulose) (HPC).
Where [2] appears, read: dose: 200.0 mg/kg/injection, schedule: Q04DX003 (ip), vehicle: Klucel (hydroxypropylcellulose) (HPC).
Where [3] appears, read: dose: 400.0 mg/kg/injection, schedule: Q04DX003 (ip), vehicle: Klucel (hydroxypropylcellulose) (HPC).
Where [4] appears, read: dose: 60.0 mg/kg/injection, schedule: Q01DX005 (ip), vehicle: saline with Tween-80.
[5] abbreviates: dose: 120.0 mg/kg/injection, schedule: Q01DX005 (ip), vehicle: saline with Tween-80.
The mark [6] stands for this setting: dose: 240.0 mg/kg/injection, schedule: Q01DX005 (ip), vehicle: saline with Tween-80.
[7] abbreviates: dose: 12.5 mg/kg/injection, schedule: Q01DX009 (ip), vehicle: saline with Tween-80.
Where [8] appears, read: dose: 25.0 mg/kg/injection, schedule: Q01DX009 (ip), vehicle: saline with Tween-80.
The mark [9] stands for this setting: dose: 50.0 mg/kg/injection, schedule: Q01DX009 (ip), vehicle: saline with Tween-80.
The mark [10] stands for this setting: dose: 200.0 mg/kg/injection, schedule: Q01DX009 (ip), vehicle: saline with Tween-80.
Where [11] appears, read: dose: 100.0 mg/kg/injection, schedule: Q01DX009 (ip), vehicle: saline with Tween-80.
The mark [12] stands for this setting: dose: 400.0 mg/kg/injection, schedule: Q01DX009 (ip), vehicle: saline with Tween-80.
Where [13] appears, read: dose: 50.0 mg/kg/injection, schedule: Q01DX005 (ip), vehicle: saline with Tween-80.
The mark [14] stands for this setting: dose: 100.0 mg/kg/injection, schedule: Q04DX002 (ip), vehicle: saline with Tween-80.
The mark [15] stands for this setting: dose: 200.0 mg/kg/injection, schedule: Q04DX002 (ip), vehicle: saline with Tween-80.
Where [16] appears, read: dose: 400.0 mg/kg/injection, schedule: Q04DX002 (ip), vehicle: saline with Tween-80.
[17] abbreviates: dose: 120.0 mg/kg/injection, schedule: Q01DX005 (ip), vehicle: Klucel (hydroxypropylcellulose) (HPC).

`c1ccc(CN2COc3c(ccc4ccccc34)C2)cc1`: the T/C under setting [1] was 97 % of control, the T/C under setting [2] was 102 % of control and the T/C under setting [3] was 96 % of control.

`CCc1ccccc1NC(=O)C(=O)CC(=O)CS(=O)(=O)c1ccc(C)cc1`: the T/C is, setting by setting: under setting [4], 103 % of control; under setting [5], 100 % of control; under setting [6], 103 % of control.

On to `CSC(=S)Nc1nc2ccc(C)cc2s1`, for which the T/C under setting [1] is 95 % of control, the T/C under setting [2] was 88 % of control and the T/C under setting [3] was 92 % of control.

Regarding `O=C(/C=C/c1ccc(OCc2ccccc2)cc1)c1ccc(C(F)(F)F)cc1`, the T/C under setting [7] is 94 % of control; the T/C under setting [8] was 100 % of control; the T/C under setting [9] was 90 % of control and 93 % of control; the T/C under setting [10] is 95 % of control.

With `COC(=O)Nc1nc2cc(Cl)c(Cl)cc2[nH]1`, the T/C reads like this: under setting [8], 103 % of control and 92 % of control; under setting [9], 105 % of control and 123 % of control and 124 % of control; under setting [11], 111 % of control; under setting [10], 114 % of control; under setting [12], 112 % of control; (dose: 600.0 mg/kg/injection, schedule: Q01DX009 (ip), vehicle: saline with Tween-80) 119 % of control.

For the molecule `COc1ccc(CSC(=S)Nc2ccc(C)c(C)c2)cc1`, the T/C is 99 % of control (dose: 50.0 mg/kg/injection, schedule: Q01DX009 (ip), vehicle: suspension in saline); 100 % of control (dose: 100.0 mg/kg/injection, schedule: Q01DX009 (ip), vehicle: suspension in saline); 99 % of control (dose: 200.0 mg/kg/injection, schedule: Q01DX009 (ip), vehicle: suspension in saline).

For `COc1cc(NCCCCCNC(C)C)c2ncccc2c1`, the T/C reads like this: (dose: 12.5 mg/kg/injection, schedule: Q01DX005 (ip), vehicle: saline with Tween-80) 103 % of control; (dose: 25.0 mg/kg/injection, schedule: Q01DX005 (ip), vehicle: saline with Tween-80) 113 % of control; under setting [13], 100 % of control.

Turning to `CC(CCc1nc2ccccc2[nH]1)c1nc2ccccc2[nH]1` (stereo not drawn), the T/C reads like this: (dose: 25.0 mg/kg/injection, schedule: Q01DX005 (ip), vehicle: Klucel (hydroxypropylcellulose) (HPC)) 92 % of control; (dose: 50.0 mg/kg/injection, schedule: Q01DX005 (ip), vehicle: Klucel (hydroxypropylcellulose) (HPC)) 94 % of control; (dose: 100.0 mg/kg/injection, schedule: Q01DX005 (ip), vehicle: Klucel (hydroxypropylcellulose) (HPC)) 91 % of control; (dose: 200.0 mg/kg/injection, schedule: Q01DX005 (ip), vehicle: Klucel (hydroxypropylcellulose) (HPC)) 91 % of control.

As to `NC1=NCCCN1`, the T/C reads like this: (dose: 3.0 mg/kg/injection, schedule: Q01DX009 (ip), vehicle: saline) 95 % of control; (dose: 6.0 mg/kg/injection, schedule: Q01DX009 (ip), vehicle: saline) 104 % of control; (dose: 12.0 mg/kg/injection, schedule: Q01DX009 (ip), vehicle: saline) 90 % of control.

Take `CCN(CC)c1ccc2cc(C(=O)NC(=O)Oc3ccccc3)c(=O)oc2c1`: the T/C was 92 % of control under setting [14], 89 % of control under setting [15] and 87 % of control under setting [16].

Turning to `CC(C)(C)C1=CC(=O)C(=O)C(C(C)(C)C)=C1`, the T/C runs as follows: (dose: 25.0 mg/kg/injection, schedule: Q01DX009 (ip), vehicle: other) 101 % of control; (dose: 50.0 mg/kg/injection, schedule: Q01DX009 (ip), vehicle: other) 108 % of control; (dose: 100.0 mg/kg/injection, schedule: Q01DX009 (ip), vehicle: other) 108 % of control.

Turning to `Clc1ccccc1C(Nc1nncs1)Nc1nncs1`, the T/C under setting [4] is 106 % of control, the T/C under setting [5] was 113 % of control and the T/C under setting [6] was 122 % of control.

Consider `Cc1cccc2c(C(=O)O)cc(-c3ccc(Cl)cc3)nc12`, for which the T/C reads like this: under setting [7], 104 % of control; under setting [8], 99 % of control; under setting [9], 108 % of control.

As to `CC(=O)Oc1cc(OC(C)=O)c2c(c1)C(=O)c1cc(C)cc(OC(C)=O)c1C2=O`, the T/C by setting is: under setting [14], 90 % of control and 96 % of control; under setting [15], 90 % of control; under setting [16], 90 % of control.

Consider `Nc1cc2c(c[n+](CCCCCCCCCC[n+]3cc4c5ccccc5c(N)cc4c4ccccc43)c3ccccc23)c2ccccc12`, for which the T/C (dose: 0.78 mg/kg/injection, schedule: Q04DX003 (ip), vehicle: other) was 118 % of control; the T/C (dose: 12.5 mg/kg/injection, schedule: Q04DX003 (ip), vehicle: distilled water + Tween-80) was 166 % of control; the T/C (dose: 25.0 mg/kg/injection, schedule: Q04DX003 (ip), vehicle: distilled water + Tween-80) is 159 % of control; the T/C (dose: 25.0 mg/kg/injection, schedule: Q04DX003 (ip), vehicle: other) is 160 % of control and 166 % of control; the T/C (dose: 50.0 mg/kg/injection, schedule: Q04DX003 (ip), vehicle: distilled water + Tween-80) was 165 % of control; the T/C (dose: 50.0 mg/kg/injection, schedule: Q04DX003 (ip), vehicle: other) is 157 % of control and 160 % of control. The T/C reads like this: (dose: 100.0 mg/kg/injection, schedule: Q04DX003 (ip), vehicle: distilled water + Tween-80) 161 % of control; (dose: 200.0 mg/kg/injection, schedule: Q04DX003 (ip), vehicle: distilled water + Tween-80) 161 % of control; (dose: 200.0 mg/kg/injection, schedule: Q04DX003 (ip), vehicle: other) 169 % of control; (dose: 400.0 mg/kg/injection, schedule: Q04DX003 (ip), vehicle: distilled water + Tween-80) 175 % of control.

As to `CCOC(=O)C(C(=O)OCC)C1CCC2(C)CCC(=O)C=C2C1` (stereo not drawn), the T/C was 95 % of control under setting [9], 100 % of control under setting [11] and 105 % of control under setting [10].

Regarding `CCc1c(COC(=O)NC)c(COC(=O)NC)cc2c1[nH]c1ccccc12`, the T/C by setting is: under setting [13], 88 % of control; (dose: 100.0 mg/kg/injection, schedule: Q01DX005 (ip), vehicle: saline with Tween-80) 88 % of control; (dose: 200.0 mg/kg/injection, schedule: Q01DX005 (ip), vehicle: saline with Tween-80) 89 % of control.

Consider `COc1cccc2c1oc1c3ccc(O)cc3oc(=O)c21`, for which the T/C (dose: 6.2 mg/kg/injection, schedule: Q01DX007 (ip), vehicle: carboxymethylcellulose (CMC)) was 91 % of control.

In the case of `Cc1cc(=O)oc2cc(O)c(C(=O)/C=C/N(C)C)cc12`, the T/C under setting [4] is 92 % of control, the T/C under setting [5] was 95 % of control and the T/C under setting [6] is 86 % of control.

As to `O=[N+]([O-])c1ccccc1N(CCO)CCO`, the T/C under setting [4] is 96 % of control, the T/C under setting [5] is 99 % of control and the T/C under setting [6] is 98 % of control.

Turning to `N#Cc1c2c(c(N3CCCCC3)n3c1nc1ccccc13)CCC2`, the T/C is 98 % of control (dose: 15.0 mg/kg/injection, schedule: Q01DX005 (ip), vehicle: saline with Tween-80); 102 % of control (dose: 30.0 mg/kg/injection, schedule: Q01DX005 (ip), vehicle: saline with Tween-80); 91 % of control and 95 % of control under setting [4].

For `CC(=O)c1c(C)n(-c2ccccc2)c2c1nnc1ccccc12`, the T/C is 101 % of control (dose: 3.75 mg/kg/injection, schedule: Q01DX005 (ip), vehicle: Klucel (hydroxypropylcellulose) (HPC)); 93 % of control (dose: 7.5 mg/kg/injection, schedule: Q01DX005 (ip), vehicle: Klucel (hydroxypropylcellulose) (HPC)); 95 % of control (dose: 15.0 mg/kg/injection, schedule: Q01DX005 (ip), vehicle: Klucel (hydroxypropylcellulose) (HPC)); 96 % of control under setting [17].

As for `Cc1ccccc1C(C)(C#N)Nc1ccccc1` (stereo not drawn), the T/C is, setting by setting: under setting [11], 100 % of control; under setting [10], 113 % of control; under setting [12], 100 % of control.

Consider `Cn1c(N=P(c2ccccc2)(c2ccccc2)c2ccccc2)cc(=O)n(C)c1=O`, for which the T/C (dose: 60.0 mg/kg/injection, schedule: Q01DX005 (ip), vehicle: Klucel (hydroxypropylcellulose) (HPC)) is 101 % of control; the T/C under setting [17] is 102 % of control; the T/C (dose: 240.0 mg/kg/injection, schedule: Q01DX005 (ip), vehicle: Klucel (hydroxypropylcellulose) (HPC)) is 101 % of control.
